For eleven compounds, T/C results are on record in PubChem BioAssay AID220 (DTP/NCI, 2004).

“And” between values parts separate entries of the source, which are not always exact repeats. Equal values may be shown once. Records with an inconclusive call do not appear.

The test relates to CD8F1 mice, subcutaneous mammary adenocarcinoma, T/C%. Put plainly: NCI In Vivo Anticancer Drug Screen. Data for tumor model Mammary Adenocarcinoma CD8F1 (subcutaneous) in CD8F1. The following applies: higher = larger tumour. In short, it runs like this:
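Transplantable tumors were established in mice, animals were dosed with compound or vehicle, and survival or tumor size was then measured in both groups. The treated result was divided by the control result.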

Where [1] appears, read: endpoint: median tumor weight (est.), dose: 12.5 mg/kg/injection, schedule: Q07DX005 (ip), vehicle: saline with Tween-80.
The mark [2] stands for this setting: endpoint: median tumor weight (est.), dose: 25.0 mg/kg/injection, schedule: Q07DX005 (ip), vehicle: saline with Tween-80.
The mark [3] stands for this setting: endpoint: median tumor weight (est.), dose: 50.0 mg/kg/injection, schedule: Q07DX005 (ip), vehicle: saline with Tween-80.
The mark [4] stands for this setting: endpoint: median tumor weight (est.), dose: 100.0 mg/kg/injection, schedule: Q07DX005 (ip), vehicle: saline with Tween-80.
Setting [5] is: endpoint: median tumor weight (est.), dose: 400.0 mg/kg/injection, schedule: Q07DX005 (ip), vehicle: saline with Tween-80.
Setting [6] is: endpoint: median tumor weight (est.), dose: 25.0 mg/kg/injection, schedule: Q07DX005 (ip), vehicle: saline.
[7] abbreviates: endpoint: median tumor weight (est.), dose: 50.0 mg/kg/injection, schedule: Q07DX005 (ip), vehicle: saline.
The mark [8] stands for this setting: endpoint: median tumor weight (est.), dose: 100.0 mg/kg/injection, schedule: Q07DX005 (ip), vehicle: saline.
Where [9] appears, read: endpoint: median tumor weight (est.), dose: 12.5 mg/kg/injection, schedule: Q07DX005 (ip), vehicle: distilled water + Tween-80.
[10] abbreviates: endpoint: median tumor weight (est.), dose: 25.0 mg/kg/injection, schedule: Q07DX005 (ip), vehicle: distilled water + Tween-80.
Where [11] appears, read: endpoint: median tumor weight (est.), dose: 200.0 mg/kg/injection, schedule: Q07DX005 (ip), vehicle: saline with Tween-80.

As to `CCSC(=O)N1c2ccc(OC)cc2C=CC1C#N` (stereo unspecified), the T/C by setting is: under setting [1], 93 % of control; under setting [2], 93 % of control; under setting [3], 69 % of control; under setting [4], 90 % of control; (endpoint: median tumor weight (est.), dose: 225.0 mg/kg/injection, schedule: Q07DX005 (ip), vehicle: saline with Tween-80) 59 % of control; under setting [5], 97 % of control. Besides, the T/C was 95 % of control (endpoint: median tumor weight (est.), dose: 450.0 mg/kg/injection, schedule: Q07DX005 (ip), vehicle: saline with Tween-80) and 78 % of control (endpoint: median tumor weight (est.), dose: 900.0 mg/kg/injection, schedule: Q07DX005 (ip), vehicle: saline with Tween-80).
On to `CCC(C)C(=O)OC1C(=O)OC2CC3C(C)=CC(=O)C(O)C3(C)C3C4(O)OCC23C1C(C)C4O` (stereo unspecified), for which the T/C (endpoint: median tumor weight (est.), dose: 0.5 mg/kg/injection, schedule: Q07DX005 (ip), vehicle: saline) was 70 % of control; the T/C (endpoint: median tumor weight (est.), dose: 1.0 mg/kg/injection, schedule: Q07DX005 (ip), vehicle: saline with Tween-80) was 237 % of control; the T/C (endpoint: median tumor weight (est.), dose: 1.0 mg/kg/injection, schedule: Q07DX005 (ip), vehicle: saline) was 95 % of control; the T/C (endpoint: median tumor weight (est.), dose: 2.0 mg/kg/injection, schedule: Q07DX005 (ip), vehicle: saline) was 70 % of control; the T/C (endpoint: median tumor weight (est.), dose: 4.0 mg/kg/injection, schedule: Q07DX005 (ip), vehicle: saline with Tween-80) is 165 % of control; the T/C (endpoint: median tumor weight (est.), dose: 4.0 mg/kg/injection, schedule: Q07DX005 (ip), vehicle: saline) is 74 % of control.
For the compound `C1CC[N-]CC1.C1CC[N-]CC1.C1CC[N-]CC1.[Cl][Rh]([Cl])[Cl]`, the T/C reads like this: (endpoint: median tumor weight (est.), dose: 6.25 mg/kg/injection, schedule: Q07DX005 (ip), vehicle: saline) 112 % of control; (endpoint: median tumor weight (est.), dose: 8.0 mg/kg/injection, schedule: Q07DX005 (ip), vehicle: saline) 118 % of control; (endpoint: median tumor weight (est.), dose: 12.5 mg/kg/injection, schedule: Q07DX005 (ip), vehicle: saline) 100 % of control; under setting [6], 73 % of control; (endpoint: median tumor weight (est.), dose: 32.0 mg/kg/injection, schedule: Q07DX005 (ip), vehicle: saline) 61 % of control; under setting [7], 84 % of control. Besides, the T/C (endpoint: median tumor weight (est.), dose: 64.0 mg/kg/injection, schedule: Q07DX005 (ip), vehicle: saline) is 47 % of control and the T/C under setting [8] is 45 % of control.
Take `CCCCCCCCNc1cc2c3c(c1)CCCN3CCC2`: the T/C by setting is: (endpoint: median tumor weight (est.), dose: 0.75 mg/kg/injection, schedule: Q07DX005 (ip), vehicle: Klucel (hydroxypropylcellulose) (HPC)) 88 % of control; (endpoint: median tumor weight (est.), dose: 1.5 mg/kg/injection, schedule: Q07DX005 (ip), vehicle: Klucel (hydroxypropylcellulose) (HPC)) 87 % of control; (endpoint: median tumor weight (est.), dose: 3.0 mg/kg/injection, schedule: Q07DX005 (ip), vehicle: Klucel (hydroxypropylcellulose) (HPC)) 81 % of control; (endpoint: median tumor weight (est.), dose: 6.0 mg/kg/injection, schedule: Q07DX005 (ip), vehicle: Klucel (hydroxypropylcellulose) (HPC)) 103 % of control.
In the case of `COc1cccc2c1C(=O)c1c(O)c3c(c(O)c1C2=O)C[C@@](O)(C(=O)CO)C[C@@H]3OC1CC(OC(C)=O)C(OC(C)=O)C(C)O1` (stereo partly specified), the T/C runs as follows: (endpoint: median tumor weight (est.), dose: 3.12 mg/kg/injection, schedule: Q07DX005 (ip), vehicle: distilled water + Tween-80) 65 % of control; (endpoint: median tumor weight (est.), dose: 6.25 mg/kg/injection, schedule: Q07DX005 (ip), vehicle: distilled water + Tween-80) 58 % of control; under setting [9], 6 % of control; under setting [10], 13 % of control.
Regarding `CCOC(=O)[C@]1(Br)CC[C@@]1(Br)C(=O)OCC`, the T/C is, setting by setting: under setting [1], 117 % of control; under setting [2], 102 % of control; under setting [3], 95 % of control; under setting [4], 112 % of control; under setting [11], 95 % of control; under setting [5], 105 % of control.
Turning to `COc1ccc2c(c1)C(O)(CN)CCCCC(OC)CCCC2` (stereo unspecified), under “endpoint: median tumor weight change, dose: 62.5 mg/kg/injection, schedule: Q01DX001 (ip), vehicle: Klucel (hydroxypropylcellulose) (HPC)”, the T/C was 121 % of control.
Turning to `NC(=S)N/N=C/c1ccc(O)cn1`, the T/C was 101 % of control (endpoint: mean tumor weight, dose: 12.5 mg/kg/injection, schedule: Q07DX005 (ip), vehicle: saline with Tween-80); 75 % of control (endpoint: mean tumor weight, dose: 25.0 mg/kg/injection, schedule: Q07DX005 (ip), vehicle: saline with Tween-80); 58 % of control (endpoint: mean tumor weight, dose: 50.0 mg/kg/injection, schedule: Q07DX005 (ip), vehicle: saline with Tween-80); 49 % of control (endpoint: mean tumor weight, dose: 100.0 mg/kg/injection, schedule: Q07DX005 (ip), vehicle: saline with Tween-80); 63 % of control (endpoint: mean tumor weight, dose: 200.0 mg/kg/injection, schedule: Q07DX005 (ip), vehicle: saline with Tween-80); 106 % of control under setting [1]. In addition, the T/C was 59 % of control under setting [6]; 85 % of control under setting [3]; 76 % of control under setting [7]; 124 % of control under setting [4]; 105 % of control under setting [8]; 60 % of control under setting [11]. For the same compound, the T/C (endpoint: median tumor weight (est.), dose: 200.0 mg/kg/injection, schedule: Q07DX005 (ip), vehicle: saline) is 64 % of control; the T/C under setting [5] is 52 % of control; the T/C (endpoint: median tumor weight (est.), dose: 400.0 mg/kg/injection, schedule: Q07DX005 (ip), vehicle: saline) was 44 % of control; the T/C (endpoint: median tumor weight (est.), dose: 800.0 mg/kg/injection, schedule: Q07DX005 (ip), vehicle: saline) was 2 % of control.
For the compound `Nc1cc(Cl)c2[nH]cnc2n1`, the T/C runs as follows: (endpoint: median tumor weight change, dose: 62.5 mg/kg/injection, schedule: Q01DX001 (ip), vehicle: distilled water + Tween-80) 76 % of control; (endpoint: median tumor weight change, dose: 62.5 mg/kg/injection, schedule: Q01DX001 (ip), vehicle: water) 111 % of control; (endpoint: median tumor weight change, dose: 125.0 mg/kg/injection, schedule: Q01DX001 (ip), vehicle: distilled water + Tween-80) 88 % of control; (endpoint: median tumor weight change, dose: 125.0 mg/kg/injection, schedule: Q01DX001 (ip), vehicle: water) 100 % of control; (endpoint: median tumor weight change, dose: 250.0 mg/kg/injection, schedule: Q01DX001 (ip), vehicle: distilled water + Tween-80) 58 % of control; (endpoint: median tumor weight change, dose: 250.0 mg/kg/injection, schedule: Q01DX001 (ip), vehicle: water) 92 % of control. The T/C is, setting by setting: (endpoint: median tumor weight change, dose: 500.0 mg/kg/injection, schedule: Q01DX001 (ip), vehicle: distilled water + Tween-80) 82 % of control; (endpoint: median tumor weight change, dose: 500.0 mg/kg/injection, schedule: Q01DX001 (ip), vehicle: water) 73 % of control; (endpoint: median tumor weight change, dose: 1000.0 mg/kg/injection, schedule: Q01DX001 (ip), vehicle: distilled water + Tween-80) 42 % of control; (endpoint: median tumor weight change, dose: 1000.0 mg/kg/injection, schedule: Q01DX001 (ip), vehicle: water) 80 % of control.
On to `BrC1CC(Br)c2c1c1c(c3c2C(Br)CC3Br)C(Br)CC1Br` (stereo unspecified), for which the T/C reads like this: under setting [1], 87 % of control; under setting [2], 210 % of control and 98 % of control; under setting [4], 86 % of control; under setting [11], 71 % of control and 75 % of control; under setting [5], 40 % of control; (endpoint: median tumor weight change, dose: 250.0 mg/kg/injection, schedule: Q01DX001 (ip), vehicle: saline with Tween-80) 85 % of control. In addition, the T/C is 88 % of control (endpoint: median tumor weight change, dose: 500.0 mg/kg/injection, schedule: Q01DX001 (ip), vehicle: saline with Tween-80); 59 % of control (endpoint: median tumor weight change, dose: 1000.0 mg/kg/injection, schedule: Q01DX001 (ip), vehicle: saline with Tween-80); 51 % of control (endpoint: median tumor weight change, dose: 2000.0 mg/kg/injection, schedule: Q01DX001 (ip), vehicle: saline with Tween-80).
`CCOC(=O)c1ccc(NC(=O)Nc2nncs2)cc1`: the T/C by setting is: under setting [9], 239 % of control; under setting [10], 259 % of control; (endpoint: median tumor weight (est.), dose: 50.0 mg/kg/injection, schedule: Q07DX005 (ip), vehicle: distilled water + Tween-80) 69 % of control; (endpoint: median tumor weight (est.), dose: 400.0 mg/kg/injection, schedule: Q07DX005 (ip), vehicle: distilled water + Tween-80) 156 % of control.
